The source of these data is PubChem BioAssay (NCI).

The structures appear in SMILES notation.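 How tested: cells in 96-well plates exposed to compound for 48 hours at five concentrations. TGI denotes the concentration required for complete inhibition of growth.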

Among the test systems are UACC-62 melanoma; EKVX NSCLC; HCT-116 colon; SK-MEL-2 melanoma; MALME-3M melanoma; CAKI-1 renal; SNB-19 CNS; SNB-75 CNS; U251 CNS; UO-31 renal; SF-539 CNS; RXF 393 renal; NCI-H23 lung; DLD-1 colon; NCI-H522 lung; HL-60(TB) leukemia.
Common to all, as to experiment: NCI-60 cell line screen, 48 h

For `O=C(c1ccccc1)c1ccc(OCCOc2ccc(Nc3ccccc3)cc2)cc1`, the TGI in the experiment on UACC-62 melanoma was > 100 µM; in the experiment on EKVX NSCLC, > 100 µM; with HCT-116 colon, > 100 µM; in the experiment with SK-MEL-2 melanoma, > 100 µM; in the experiment on MALME-3M melanoma, 71 µM; with CAKI-1 renal, > 100 µM. Further, the TGI was > 100 µM with SNB-19 CNS; 33.4 µM in the experiment with SNB-75 CNS; 57.1 µM in the experiment with U251 CNS; > 100 µM in the experiment with UO-31 renal; > 100 µM in the experiment with SF-539 CNS; 67.3 µM in the experiment with RXF 393 renal. Besides, the results for the TGI with NCI-H23 lung, with DLD-1 colon and in the experiment with NCI-H522 lung were > 100 µM, > 100 µM and 53.3 µM, respectively.

Take `CC1(C)OC(C[C@]2(C#N)C[C@H](CCl)OC(C)(C)O2)C[C@@H](C[C@]2(C#N)C[C@H](CCl)OC(C)(C)O2)O1` (stereo partly drawn): the TGI with UACC-62 melanoma, in the experiment with EKVX NSCLC, with HCT-116 colon, in the experiment with SK-MEL-2 melanoma, in the experiment with MALME-3M melanoma and with CAKI-1 renal was > 100 µM throughout. Further, the TGI in the experiment on SNB-19 CNS, in the experiment on SNB-75 CNS, in the experiment on U251 CNS, with SF-539 CNS, with NCI-H23 lung and in the experiment with DLD-1 colon was > 100 µM throughout. Also, the TGI in the experiment with NCI-H522 lung and in the experiment on HL-60(TB) leukemia was > 100 µM throughout.

With `CCSC1(SCC)CC(Cc2ccc(OC)cc2)N(C=NC(C)(C)C)C1` (stereo not drawn), the TGI in the experiment with UACC-62 melanoma is 67 µM; with EKVX NSCLC, > 100 µM; with HCT-116 colon, 92.8 µM; in the experiment with SK-MEL-2 melanoma, > 100 µM; in the experiment with MALME-3M melanoma, 37.5 µM; with CAKI-1 renal, > 100 µM. The TGI was > 100 µM in the experiment with SNB-19 CNS; > 100 µM in the experiment with SNB-75 CNS; 62.7 µM with U251 CNS; 87.5 µM in the experiment with UO-31 renal; > 100 µM in the experiment with SF-539 CNS; 40.9 µM in the experiment on RXF 393 renal. The TGI in the experiment with NCI-H23 lung is 43.3 µM; with DLD-1 colon, > 100 µM; in the experiment with NCI-H522 lung, 31.1 µM; in the experiment on HL-60(TB) leukemia, 26.6 µM.

With `COc1ccc2c3c(n(Cc4ccccc4)c(=O)c2c1)-c1cc(OC)c(OC)cc1C3C` (stereo not drawn), the TGI in the experiment with UACC-62 melanoma was 69.9 µM; in the experiment with EKVX NSCLC, 52.8 µM; in the experiment with HCT-116 colon it was > 100 µM; with SK-MEL-2 melanoma, 46 µM; in the experiment on MALME-3M melanoma, 57.6 µM; in the experiment with CAKI-1 renal, > 100 µM. Besides, the TGI in the experiment with SNB-19 CNS is > 84.9 µM; with SNB-75 CNS, 45.4 µM; with U251 CNS, 35.8 µM; in the experiment with UO-31 renal, > 100 µM; in the experiment on SF-539 CNS it was 24.4 µM; in the experiment on RXF 393 renal, 48.8 µM. The TGI in the experiment with NCI-H23 lung was > 100 µM; in the experiment with DLD-1 colon it was > 100 µM; with NCI-H522 lung, 47.8 µM; in the experiment on HL-60(TB) leukemia, > 100 µM.

`O=C(O)Cc1cccc2c1Oc1ccccc1S2`: the TGI in the experiment on UACC-62 melanoma, in the experiment with EKVX NSCLC, in the experiment on HCT-116 colon, in the experiment with SK-MEL-2 melanoma, in the experiment on MALME-3M melanoma and with SNB-19 CNS was > 100 µM each time. The TGI in the experiment with SNB-75 CNS, with U251 CNS, in the experiment on UO-31 renal, with SF-539 CNS, in the experiment with RXF 393 renal and in the experiment on NCI-H23 lung was > 100 µM each time. For the same molecule, the TGI in the experiment on DLD-1 colon and with HL-60(TB) leukemia was > 100 µM in each case.

As for `O=C1CCCC/C1=C1\C(=O)Nc2cc(F)ccc21`, the TGI in the experiment with UACC-62 melanoma, in the experiment with EKVX NSCLC, in the experiment with HCT-116 colon, in the experiment with SK-MEL-2 melanoma, with MALME-3M melanoma and with CAKI-1 renal was > 100 µM in each case. Further, the TGI in the experiment with SNB-19 CNS, in the experiment with SNB-75 CNS, with U251 CNS, in the experiment with UO-31 renal, in the experiment on SF-539 CNS and in the experiment with RXF 393 renal was > 100 µM in each case. For the same molecule, the TGI in the experiment with NCI-H23 lung, in the experiment on DLD-1 colon, with NCI-H522 lung and with HL-60(TB) leukemia was > 100 µM each time.

For the molecule `COc1cc(-c2cc(=O)c3c(O)c(OC)c(OC)c(OC)c3o2)ccc1O`, the TGI in the experiment on UACC-62 melanoma was 34.4 µM; in the experiment with EKVX NSCLC, > 100 µM; in the experiment on HCT-116 colon, > 100 µM; in the experiment with SK-MEL-2 melanoma it was 46.1 µM; in the experiment on MALME-3M melanoma it was > 100 µM; in the experiment on SNB-19 CNS, > 100 µM. Further, the TGI was > 100 µM with U251 CNS; > 100 µM in the experiment with UO-31 renal; 35.9 µM in the experiment with SF-539 CNS; 48 µM with RXF 393 renal; > 100 µM in the experiment with NCI-H23 lung; > 100 µM in the experiment on DLD-1 colon. The TGI in the experiment with NCI-H522 lung turned out to be 44.7 µM; with HL-60(TB) leukemia, 61.6 µM.

As to `CC(=O)C1=C(C)Cn2c(=O)c3ccccc3c(=O)n2C1`, the TGI with EKVX NSCLC, in the experiment with HCT-116 colon, in the experiment on SK-MEL-2 melanoma, with MALME-3M melanoma, in the experiment with CAKI-1 renal and in the experiment on SNB-19 CNS was > 100 µM each time. The TGI with SNB-75 CNS, in the experiment with U251 CNS, in the experiment on UO-31 renal, in the experiment on SF-539 CNS, with RXF 393 renal and with NCI-H23 lung was > 100 µM each time. For the same molecule, the TGI with DLD-1 colon, in the experiment with NCI-H522 lung and in the experiment with HL-60(TB) leukemia was > 100 µM each time.

For the molecule `CCCc1c[nH]c(-c2ccc(-c3cc(CCC)c(C=O)[nH]3)s2)c1`, the TGI was 31.2 µM in the experiment with UACC-62 melanoma; 31.9 µM with HCT-116 colon; 28.5 µM in the experiment on SK-MEL-2 melanoma; 30 µM with MALME-3M melanoma; 37 µM with SNB-19 CNS; 34.8 µM with SNB-75 CNS. Besides, the TGI was 29.2 µM with U251 CNS; 32.8 µM in the experiment on SF-539 CNS; 36.1 µM in the experiment with RXF 393 renal; 42.4 µM in the experiment on NCI-H23 lung; 28.4 µM in the experiment with DLD-1 colon; 31.1 µM in the experiment with NCI-H522 lung. In the experiment on HL-60(TB) leukemia, this molecule had a TGI of 49.8 µM.
